US11548870B2, “Compounds useful as inhibitors of helios protein” (Bristol-Myers Squibb Company, priority 2019, dated 2023)

Legend:
Helios = molecular target: T1, Helios (Homo sapiens, UniProt Q96SW2+Q9UKS7); assay: Helios Cellular Degradation Assay (flow cytometry, Helios-PE antibody staining, 72 h); type: cell-based; details: Jurkat cells, 72 h incubation, flow cytometry; for Dmax: Jurkat, read-out: Helios Dmax
T1 construct: fluorescently labelled antibodies against Helios and Ikaros; endogenous in cells; host or cells: Jurkat cells
Method in brief: (§1)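 Jurkat cells (80,000/well, RPMI+10% FBS) were exposed to compound for 72 h at 37 °C, then fixed, permeabilized and co-stained for 1 h with Ikaros-Alexa488 and Helios-PE antibodies. Intracellular protein levels were read by flow cytometry.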

Ikaros = molecular target: T2, Ikaros (Homo sapiens, UniProt Q13422); assay: Helios Cellular Degradation Assay, Ikaros readout (flow cytometry, Ikaros-Alexa488 antibody staining, 72 h); type: cell-based; details: Jurkat cells, 72 h incubation, flow cytometry; for Dmax: Jurkat, read-out: Ikaros Dmax
T2 construct: fluorescently labelled antibodies against Helios and Ikaros; endogenous in cells; host or cells: Jurkat cells
Method in brief: as §1

T1 sequence (Q9UKS7 whole entry): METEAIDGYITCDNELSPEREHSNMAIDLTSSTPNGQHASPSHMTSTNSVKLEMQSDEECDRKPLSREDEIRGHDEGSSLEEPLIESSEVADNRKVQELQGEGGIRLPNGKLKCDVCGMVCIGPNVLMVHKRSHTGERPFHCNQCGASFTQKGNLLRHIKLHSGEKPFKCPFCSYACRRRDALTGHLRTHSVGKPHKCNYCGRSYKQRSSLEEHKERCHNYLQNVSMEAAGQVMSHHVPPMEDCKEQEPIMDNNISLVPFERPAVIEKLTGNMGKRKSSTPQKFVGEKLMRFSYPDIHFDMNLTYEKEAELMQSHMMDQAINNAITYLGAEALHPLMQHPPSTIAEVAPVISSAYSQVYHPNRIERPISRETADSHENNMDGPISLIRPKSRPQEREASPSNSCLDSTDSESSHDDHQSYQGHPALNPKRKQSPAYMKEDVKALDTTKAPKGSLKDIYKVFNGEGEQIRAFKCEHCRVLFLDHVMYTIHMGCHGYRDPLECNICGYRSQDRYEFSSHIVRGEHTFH
T1 sequence (Q96SW2 whole entry): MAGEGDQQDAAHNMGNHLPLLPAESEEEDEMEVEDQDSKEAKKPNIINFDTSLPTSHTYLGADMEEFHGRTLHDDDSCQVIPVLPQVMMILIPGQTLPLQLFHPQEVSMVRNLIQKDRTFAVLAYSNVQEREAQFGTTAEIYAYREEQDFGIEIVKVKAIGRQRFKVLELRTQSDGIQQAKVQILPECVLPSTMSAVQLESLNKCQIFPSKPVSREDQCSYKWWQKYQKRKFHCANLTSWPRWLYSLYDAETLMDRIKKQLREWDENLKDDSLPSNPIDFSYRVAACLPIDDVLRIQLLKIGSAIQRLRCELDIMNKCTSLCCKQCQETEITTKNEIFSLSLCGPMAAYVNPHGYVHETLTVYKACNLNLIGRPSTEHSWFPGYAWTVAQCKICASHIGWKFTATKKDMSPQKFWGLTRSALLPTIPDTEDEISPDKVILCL
T1 sequence (Q16531 whole entry partner): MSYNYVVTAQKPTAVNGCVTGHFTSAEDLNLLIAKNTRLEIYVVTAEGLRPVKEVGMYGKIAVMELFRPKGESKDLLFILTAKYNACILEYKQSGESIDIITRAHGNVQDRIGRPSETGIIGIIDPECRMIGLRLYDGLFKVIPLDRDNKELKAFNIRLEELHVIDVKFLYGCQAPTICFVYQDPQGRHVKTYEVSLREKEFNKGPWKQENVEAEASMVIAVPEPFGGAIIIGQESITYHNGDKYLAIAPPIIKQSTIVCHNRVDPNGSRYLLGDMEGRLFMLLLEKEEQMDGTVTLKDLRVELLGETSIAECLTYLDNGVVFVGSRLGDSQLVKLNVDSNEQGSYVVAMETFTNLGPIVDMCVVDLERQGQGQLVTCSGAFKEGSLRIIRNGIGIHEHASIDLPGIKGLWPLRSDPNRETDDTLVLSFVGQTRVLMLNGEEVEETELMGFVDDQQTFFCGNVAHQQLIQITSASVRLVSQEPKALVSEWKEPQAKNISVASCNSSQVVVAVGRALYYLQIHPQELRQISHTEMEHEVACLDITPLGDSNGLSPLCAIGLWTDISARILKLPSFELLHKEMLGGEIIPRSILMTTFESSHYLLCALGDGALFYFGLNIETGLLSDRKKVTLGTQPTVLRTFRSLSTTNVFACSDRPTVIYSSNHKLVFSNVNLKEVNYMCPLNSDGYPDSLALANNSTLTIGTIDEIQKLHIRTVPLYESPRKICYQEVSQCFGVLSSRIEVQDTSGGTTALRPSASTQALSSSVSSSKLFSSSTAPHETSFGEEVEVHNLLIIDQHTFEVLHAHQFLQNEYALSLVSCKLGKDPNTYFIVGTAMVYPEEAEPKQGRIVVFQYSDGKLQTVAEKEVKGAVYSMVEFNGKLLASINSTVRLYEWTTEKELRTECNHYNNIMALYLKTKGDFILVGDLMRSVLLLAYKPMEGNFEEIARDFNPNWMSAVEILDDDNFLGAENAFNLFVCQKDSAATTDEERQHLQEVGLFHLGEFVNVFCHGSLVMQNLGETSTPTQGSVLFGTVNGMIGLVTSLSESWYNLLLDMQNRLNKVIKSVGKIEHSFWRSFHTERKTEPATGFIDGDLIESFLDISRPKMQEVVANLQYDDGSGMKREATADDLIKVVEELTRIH
T2 sequence (Q96SW2 whole entry partner): as the sequence (Q96SW2 whole entry) above
T2 sequence (Q16531 whole entry partner): as the sequence (Q16531 whole entry partner) above
T2 sequence (Q13422 whole entry): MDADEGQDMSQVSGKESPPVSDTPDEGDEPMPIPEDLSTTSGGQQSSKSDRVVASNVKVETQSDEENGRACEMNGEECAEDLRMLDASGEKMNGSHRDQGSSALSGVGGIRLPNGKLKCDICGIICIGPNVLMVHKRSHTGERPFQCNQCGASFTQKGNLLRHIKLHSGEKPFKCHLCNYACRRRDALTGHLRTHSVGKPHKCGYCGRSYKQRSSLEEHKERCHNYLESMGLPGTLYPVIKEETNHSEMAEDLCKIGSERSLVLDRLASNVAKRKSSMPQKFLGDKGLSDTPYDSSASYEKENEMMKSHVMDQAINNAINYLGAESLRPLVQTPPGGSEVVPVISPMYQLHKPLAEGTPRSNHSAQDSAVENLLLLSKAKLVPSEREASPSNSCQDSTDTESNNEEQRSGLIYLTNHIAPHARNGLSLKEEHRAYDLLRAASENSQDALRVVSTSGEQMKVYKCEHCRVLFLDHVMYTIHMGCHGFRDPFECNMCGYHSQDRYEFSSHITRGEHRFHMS

| Compound | DC50 (Helios) [µM] | Dmax (Helios) [%] | DC50 (Ikaros) [µM] | Dmax (Ikaros) [%] |
| --- | --- | --- | --- | --- |
| CN(Cc1ccc(C(F)(F)F)cc1)Cc1ccnc(-c2ccc3c(c2)CN(C2CCC(=O)NC2=O)C3=O)c1 (stereo not shown) [Example 149, 3-(5-(4-((methyl(4-(trifluoromethyl)benzyl)amino)methyl)pyridin-2-yl)-1-oxoisoindolin-2-yl)piperidine-2,6-dione] | > 10 | 17 | > 10 | 6 |
| CN(Cc1ccc(C#N)cc1)Cc1ccnc(-c2ccc3c(c2)CN(C2CCC(=O)NC2=O)C3=O)c1 (stereo not shown) [Example 150, 4-((((2-(2-(2,6-dioxopiperidin-3-yl)-1-oxoisoindolin-5-yl)pyridin-4-yl)methyl)(methyl)amino)methyl)benzonitrile] | > 10 | 45 | > 10 | 17 |
| CN(Cc1ccc([N+](=O)[O-])cc1)Cc1ccnc(-c2ccc3c(c2)CN(C2CCC(=O)NC2=O)C3=O)c1 (stereo not shown) [Example 151, 3-(5-(4-((methyl(4-nitrobenzyl)amino)methyl)pyridin-2-yl)-1-oxoisoindolin-2-yl)piperidine-2,6-dione] | > 10 | 23 | > 10 | 1 |
| COC(=O)c1ccc(CN(C)Cc2ccnc(-c3ccc4c(c3)CN(C3CCC(=O)NC3=O)C4=O)c2)cc1 (stereo not shown) [Example 153, methyl 4-((((2-(2-(2,6-dioxopiperidin-3-yl)-1-oxoisoindolin-5-yl)pyridin-4-yl)methyl)(methyl)amino)methyl)benzoate] | 4.71 | 58 | > 10 | 7 |
| CN(Cc1ccc(Cl)cc1)Cc1ccnc(-c2ccc3c(c2)CN(C2CCC(=O)NC2=O)C3=O)c1 (stereo not shown) [Example 154, 3-(5-(4-(((4-chlorobenzyl)(methyl)amino)methyl)pyridin-2-yl)-1-oxoisoindolin-2-yl)piperidine-2,6-dione] | 3.26 | 54 | > 10 | 6 |
| CN(Cc1ccc(S(C)(=O)=O)cc1)Cc1ccnc(-c2ccc3c(c2)CN(C2CCC(=O)NC2=O)C3=O)c1 (stereo not shown) [Example 157, 3-(5-(4-((methyl(4-(methylsulfonyl)benzyl)amino)methyl)pyridin-2-yl)-1-oxoisoindolin-2-yl)piperidine-2,6-dione] | > 10 | 38 | > 10 | 8 |
| O=C1CCC(N2Cc3cc(-c4cc(CN5CCOCC5)ccn4)ccc3C2=O)C(=O)N1 (stereo not shown) [Example 166, 3-(5-{4-[(Morpholin-4-yl)methyl]pyridin-2-yl}-1-oxo-2,3-dihydro-1H-isoindol-2-yl) piperidine-2,6-dione] | 7.86 | 52 | > 10 | 7 |
| O=C1CCC(N2Cc3cc(-c4cc(CN5CCS(=O)(=O)CC5)ccn4)ccc3C2=O)C(=O)N1 (stereo not shown) [Example 167, 4-({2-[2-(2,6-Dioxopiperidin-3-yl)-1-oxo-2,3-dihydro-1H-isoindol-5-yl]pyridin-4-yl}methyl)-1λ6-thiomorpholine-1,1-dione] | > 10 | 41 | > 10 | 12 |

These reach a lower DC50 (Helios). Values come first.

| DC50 (Helios) [µM] | Dmax (Helios) [%] | DC50 (Ikaros) [µM] | Dmax (Ikaros) [%] | Compound |
| --- | --- | --- | --- | --- |
| 1.83 | 56 | > 10 | 11 | CN(Cc1cccc(OC(F)(F)F)c1)Cc1ccnc(-c2ccc3c(c2)CN(C2CCC(=O)NC2=O)C3=O)c1 (stereo not shown) [Example 156, 3-(5-(4-((methyl(3-(trifluoromethoxy)benzyl)amino)methyl)pyridin-2-yl)-1-oxoisoindolin-2-yl)piperidine-2,6-dione] |
| 1.58 | 57 | > 10 | 0 | CN(Cc1ccnc(-c2ccc3c(c2)CN(C2CCC(=O)NC2=O)C3=O)c1)Cc1cccc2cccnc12 (stereo not shown) [Example 155, 3-(5-(4-((methyl(quinolin-8-ylmethyl)amino)methyl)pyridin-2-yl)-1-oxoisoindolin-2-yl)piperidine-2,6-dione] |
| 1.09 | 63 | > 10 | 2 | CN(Cc1ccnc(-c2ccc3c(c2)CN(C2CCC(=O)NC2=O)C3=O)c1)Cc1ccc2ccccc2c1 (stereo not shown) [Example 162, 3-(5-(4-((methyl(naphthalen-2-ylmethyl)amino)methyl)pyridin-2-yl)-1-oxoisoindolin-2-yl)piperidine-2,6-dione] |
| 1.02 | 56 | > 10 | 31 | O=C1CCC(N2Cc3cc(-c4cc(CN(Cc5ccccc5)Cc5ccccc5)ccn4)ccc3C2=O)C(=O)N1 (stereo not shown) [Example 163, 3-(5-{4-[(Dibenzylamino)methyl]pyridin-2-yl}-1-oxo-2,3-dihydro-1H-isoindol-2-yl)piperidine-2,6-dione] |
| 0.85 | 55 | > 10 | 7 | CN(Cc1ccnc(-c2ccc3c(c2)CN(C2CCC(=O)NC2=O)C3=O)c1)Cc1ccc(F)c(F)c1 (stereo not shown) [Example 152, 3-(5-(4-(((3,4-difluorobenzyl)(methyl)amino)methyl)pyridin-2-yl)-1-oxoisoindolin-2-yl)piperidine-2,6-dione] |
| 0.359 | 70 | > 10 | 30 | CN(Cc1ccncc1)Cc1ccnc(-c2ccc3c(c2)CN(C2CCC(=O)NC2=O)C3=O)c1 (stereo not shown) [Example 160, 3-(5-(4-((methyl(pyridin-4-ylmethyl)amino)methyl)pyridin-2-yl)-1-oxoisoindolin-2-yl) piperidine-2,6-dione] |
| 0.256 | 74 | > 10 | 3 | COc1cccc(CN(C)Cc2ccnc(-c3ccc4c(c3)CN(C3CCC(=O)NC3=O)C4=O)c2)c1 (stereo not shown) [Example 158, 3-(5-(4-(((3-methoxybenzyl)(methyl)amino)methyl)pyridin-2-yl)-1-oxoisoindolin-2-yl)piperidine-2,6-dione] |
| 0.136 | 76 | > 10 | 25 | CN(Cc1cccnc1)Cc1ccnc(-c2ccc3c(c2)CN(C2CCC(=O)NC2=O)C3=O)c1 (stereo not shown) [Example 159, 3-(5-(4-((methyl(pyridin-3-ylmethyl)amino)methyl)pyridin-2-yl)-1-oxoisoindolin-2-yl)piperidine-2,6-dione] |
| 0.067 | 83 | > 10 | 17 | Cc1ccc(CN(C)Cc2ccnc(-c3ccc4c(c3)CN(C3CCC(=O)NC3=O)C4=O)c2)cc1 (stereo not shown) [Example 161, 3-(5-(4-((methyl(4-methylbenzyl)amino)methyl)pyridin-2-yl)-1-oxoisoindolin-2-yl)piperidine-2,6-dione] |
| 0.062 | 77 | > 10 | 10 | CN(Cc1ccccc1)Cc1ccnc(-c2ccc3c(c2)CN(C2CCC(=O)NC2=O)C3=O)c1 (stereo not shown) [Example 164, 3-[5-(4-{[Benzyl(methyl)amino]methyl}pyridin-2-yl)-1-oxo-2,3-dihydro-1H-isoindol-2-yl]piperidine-2,6-dione] |
| 0.056 | 95 | > 10 | 14 | O=C1CCC(N2Cc3cc(-c4cc(CN5CCC5)ccn4)ccc3C2=O)C(=O)N1 (stereo not shown) [Example 165, 3-(5-{4-[(Azetidin-1-yl)methyl]pyridin-2-yl}-1-oxo-2,3-dihydro-1H-isoindol-2-yl) piperidine-2,6-dione] |
